Test results: US20250326748A1, “COMPOUNDS AND METHODS FOR MODULATING SPLICING” (REMIX THERAPEUTICS INC., priority 2022, published 2025)
Where a name gives a salt, the structure may show the parent alone. Read-outs that look alike come from different tables or passages of the source.

System: Target C mRNA
Assay: Splicing RT-qPCR panel, Target C canonical junction (CJ) mRNA
Format: cell-based, human
Details: read-out: Target C CJ (decrease in CJ mRNA levels, IC50)
In short: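 A673 cells (DMEM, 10% FBS) or K562 cells (IMDM, 10% FBS) treated 24 h at 37 °C with an 11-point 3-fold dilution, top 10 uM, DMSO ≤0.25%. Canonical-junction mRNA quantified in lysates by RT-qPCR, normalised to GAPDH, GUSB or PPIA and to DMSO (2^−ΔΔCt), then converted to % response.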

| IC50 (Homo sapiens) | IC50 | Compound |
| --- | --- | --- |
| 100 to 1000 nM | – | CN[C@@H]1CN(c2cnc3nc(-c4cc5cn(C)nc5c(C)c4O)ccc3c2)C[C@H]1F (single isomer, unassigned) [Compound 130] |
| 1000 to 10000 nM | – | CN[C@H]1CN(c2cnc3nc(-c4cc5cn(C)nc5c(C)c4O)ccc3c2)C[C@@H]1F (single isomer, unassigned) [Compound 131] |
| 100 to 1000 nM | – | Cc1c(O)c(-c2ccc3cc(N4CCC(NCC5CC5)C4)cnc3n2)cc2cn(C)nc12 (stereo in doubt) [Compound 119, 5-{6-[(3R)-3-[(cyclopropylmethyl)amino]pyrrolidin-1-yl]-1,8-naphthyridin-2-yl}-2,7-dimethylindazol-6-ol] |
| 1000 to 10000 nM | – | Cc1c(O)c(-c2ccc3cc(N4CCC(NCC5CC5)C4)cnc3n2)cc2cn(C)nc12 (stereo not shown) [Compound 105, 5-(6-{3-[(cyclopropylmethyl)amino]pyrrolidin-1-yl}-1,8-naphthyridin-2-yl)-2,7-dimethylindazol-6-ol] |
| 100 to 1000 nM | – | CCNC1CCN(c2cnc3nc(-c4cc5cn(C)nc5c(F)c4O)ccc3c2)C1 (stereo not shown) [Compound 106, 5-{6-[3-(ethylamino)pyrrolidin-1-yl]-1,8-naphthyridin-2-yl}-7-fluoro-2-methylindazol-6-ol] |
| 100 to 1000 nM | – | CN[C@@H]1CCN(c2cnc3nc(-c4cc5cn(C)nc5c(C)c4O)ncc3c2)C1 [Compound 107, 2,7-dimethyl-5-{6-[(3R)-3-(methylamino)pyrrolidin-1-yl]pyrido[2,3-d]pyrimidin-2-yl}indazol-6-ol hydrochloride] |
| < 100 nM | – | CN[C@@H]1CCN(c2cnc3nc(-c4cc5cn(C)nc5c(C)c4O)ccc3c2)C1 [Compound 112] |
| > 10000 nM | – | Cc1cn2nc(-c3cnc4nc(C5CCNCC5)ccc4c3)cc(C)c2n1 [Compound 115, 6-(2,8-dimethylimidazo[1,2-b]pyridazin-6-yl)-2-(piperidin-4-yl)-1,8-naphthyridine] |
| 100 to 1000 nM | – | CN[C@H]1CCN(c2cnc3nc(-c4cc(C)c5nc(C)cn5n4)ccc3c2)C1 [Compound 116] |
| 1000 to 10000 nM | – | CN[C@@H]1CCN(c2cnc3nc(-c4cc(C)c5nc(C)cn5n4)ccc3c2)C1 [Compound 117] |
| 100 to 1000 nM | – | Cc1c(O)c(-c2ccc3cc(N4CC[C@@H](NCC5CC5)C4)cnc3n2)cc2cn(C)nc12 [Compound 118] |
| > 10000 nM | – | CN[C@H]1CCN(c2cnc3nc(-c4cc5cn(C)nc5c(C)c4O)ncc3c2)C1 [Compound 120] |
| 100 to 1000 nM | – | CCNC1CCN(c2cnc3nc(-c4cc5cn(C)nc5c(C)c4O)ccc3c2)C1 (stereo not shown) [Compound 122, 5-{6-[3-(ethylamino)pyrrolidin-1-yl]-1,8-naphthyridin-2-yl}-2,7-dimethylindazol-6-ol] |
| 100 to 1000 nM | – | CCN[C@H]1CCN(c2cnc3nc(-c4cc5cn(C)nc5c(C)c4O)ccc3c2)C1 [Compound 123] |
| 100 to 1000 nM | – | CCN[C@@H]1CCN(c2cnc3nc(-c4cc5cn(C)nc5c(C)c4O)ccc3c2)C1 [Compound 124] |
| 100 to 1000 nM | – | CN[C@H]1CN(c2cnc3nc(-c4cc5cn(C)nc5c(C)c4O)ccc3c2)C[C@H]1C [Compound 125, 2,7-dimethyl-5-{6-[(3R,4R)-3-methyl-4-(methylamino)379pyrrolidine-1-yl]-1,8-naphthyridin-2-yl}indazol-6-ol] |
| 1000 to 10000 nM | – | CN[C@@H]1CN(c2cnc3nc(-c4cc5cn(C)nc5c(C)c4O)ccc3c2)C[C@H]1C [Compound 126, 2,7-dimethyl-5-{6-[(3R,4S)-3-methyl-4-(methylamino)382pyrrolidine-1-yl]-1,8-naphthyridin-2-yl}indazol-6-ol] |
| 100 to 1000 nM | – | CN[C@H]1CN(c2cnc3nc(-c4cc5cn(C)nc5c(C)c4O)ccc3c2)C[C@@H]1C [Compound 127, 2,7-dimethyl-5-{6-[(3S,4R)-3-methyl-4-(methylamino)384pyrrolidine-1-yl]-1,8-naphthyridin-2-yl}indazol-6-ol] |
| 100 to 1000 nM | – | CN[C@@H]1CN(c2cnc3nc(-c4cc5cn(C)nc5c(C)c4O)ccc3c2)C[C@@H]1C [Compound 128] |
| 100 to 1000 nM | – | CN[C@H]1CN(c2cnc3nc(-c4cc5cn(C)nc5c(C)c4O)ccc3c2)C[C@H]1F [Compound 129, 5-{6-[(3R,4S)-3-fluoro-4-(methylamino)pyrrolidin-1-yl]-1,8-naphthyridin-2-yl}-2,7-dimethylindazol-6-ol] |
| 100 to 1000 nM | – | CN[C@@H]1CN(c2cnc3nc(-c4cc5cn(C)nc5c(C)c4O)ccc3c2)C[C@@H]1F [Compound 132, 5-{6-[(3S,4R)-3-fluoro-4-(methylamino)pyrrolidin-1-yl]-1,8-naphthyridin-2-yl}-2,7-dimethylindazol-6-ol] |
| > 10000 nM | – | Cn1cc2cc(-c3cnc4nc(N5CCC(NC(C)(C)C)C5)ccc4c3)c(O)cc2n1 (stereo not shown) [Compound 133, 5-{7-[3-(tert-butylamino)pyrrolidin-1-yl]-1,8-naphthyridin-3-yl}-2-methylindazol-6-ol] |
| 100 to 1000 nM | – | Cn1cc2cc(-c3ccc4cc(N5CCC(NC(C)(C)C)C5)cnc4n3)c(O)cc2n1 (stereo not shown) [Compound 134, 5-{6-[3-(tert-butylamino)pyrrolidin-1-yl]-1,8-naphthyridin-2-yl}-2-methylindazol-6-ol hydrochloride] |

| IC50 (Homo sapiens) | IC50 | Compound |
| --- | --- | --- |
| 100 to 1000 nM | – | Cn1cc2cc(-c3ccc4cc(N5CC[C@@H](NCC6CC6)C5)cnc4n3)c(O)c(F)c2n1 [Compound 135, 5-{6-[(3R)-3-[(cyclopropylmethyl)amino]330pyrrolidine-1-yl]-1,8-naphthyridin-2-yl}-7-fluoro-2-methylindazol-6-ol] |
| 1000 to 10000 nM | – | Cn1cc2cc(-c3ccc4cc(N5CC[C@H](NCC6CC6)C5)cnc4n3)c(O)c(F)c2n1 [Compound 136, 5-{6-[(3S)-3-[(cyclopropylmethyl)amino]326pyrrolidine-1-yl]-1,8-naphthyridin-2-yl}-7-fluoro-2-methylindazol-6-ol] |
| 100 to 1000 nM | – | Cc1c(O)c(-c2ccc3cc(N4CCNCC4)cnc3n2)cc2cn(C)nc12 [Compound 137, 2,7-dimethyl-5-[6-(piperazin-1-yl)-1,8-naphthyridin-2-yl]indazol-6-ol] |
| 1000 to 10000 nM | – | Cc1c(O)c(-c2ccc3cc(N4CCC(N(C)C)CC4)cnc3n2)cc2cn(C)nc12 [Compound 138, 5-{6-[4-(dimethylamino)piperidin-1-yl]-1,8-naphthyridin-2-yl}-2,7-dimethylindazol-6-ol] |
| 100 to 1000 nM | – | CNC1CCN(c2cnc3nc(-c4cc5cn(C)nc5c(C)c4O)cc(Cl)c3c2)C1 (stereo not shown) [Compound 142, 5-{4-chloro-6-[3-(methylamino)351pyrrolidine-1-yl]-1,8-naphthyridin-2-yl}-2,7-dimethylindazol-6-ol] |
| 100 to 1000 nM | – | Cc1c(O)c(-c2cc(Cl)c3cc(N4CCC(N(C)C)C4)cnc3n2)cc2cn(C)nc12 (stereo not shown) [Compound 143, 5-{4-chloro-6-[3-(dimethylamino)357pyrrolidine-1-yl]-1,8-naphthyridin-2-yl}-2,7-dimethylindazol-6-ol] |
| 1000 to 10000 nM | – | Cc1c(O)c(-c2cc(C3CC3)c3cc(N4CCNCC4)cnc3n2)cc2cn(C)nc12 [Compound 144, 5-(4-cyclopropyl-6-(piperazin-1-yl)-1,8-naphthyridin-2-yl)-2,7-dimethyl-2H-indazol-6-ol bis(2,2,2-trifluoroacetate)] |
| 1000 to 10000 nM | – | Cc1c(O)c(-c2cc(Cl)c3cc(NC4CCNC4)cnc3n2)cc2cn(C)nc12 (stereo not shown) [Compound 146, 5-[4-chloro-6-(359pyrrolidine-3-ylamino)-1,8-naphthyridin-2-yl]-2,7-dimethylindazol-6-ol] |
| 1000 to 10000 nM | – | Cc1c(O)c(-c2cc(Cl)c3cc(N4CCNC(C)C4)cnc3n2)cc2cn(C)nc12 (stereo not shown) [Compound 147] |
| – | 1000 to 10000 nM | Cc1c(O)c(-c2cc(Cl)c3cc(N4C[C@@H](C)N[C@@H](C)C4)cnc3n2)cc2cn(C)nc12 [Compound 149] |
| > 10000 nM | – | CNC(=O)c1cc(-c2cc3cn(C)nc3c(C)c2O)nc2ncc(N3CCNCC3)cc12 [Compound 150, 2-(6-hydroxy-2,7-dimethylindazol-5-yl)-N-methyl-6-(piperazin-1-yl)-1,8-naphthyridine-4-carboxamide] |
| 1000 to 10000 nM | – | Cc1cc(-c2cc3cn(C)nc3c(C)c2O)nc2ncc(N3CCNCC3)cc12 [Compound 151, 2,7-dimethyl-5-[4-methyl-6-(piperazin-1-yl)-1,8-naphthyridin-2-yl]indazol-6-ol] |
| 1000 to 10000 nM | – | Cc1cn2cc(-c3cc(Cl)c4cc(N5CCNCC5)cnc4n3)cc(F)c2n1 [Compound 153, 4-chloro-2-{8-fluoro-2-methylimidazo[1,2-a]pyridin-6-yl}-6-(piperazin-1-yl)-1,8-naphthyridine] |
| 100 to 1000 nM | – | CN[C@H]1CCN(c2cnc3nc(-c4cc5cn(C)nc5c(F)c4O)cc(Cl)c3c2)C1 [Compound 272] |
| 1000 to 10000 nM | – | Cn1cc2cc(-c3cc(Cl)c4cc(N5CCNC6(CC6)C5)cnc4n3)c(O)c(F)c2n1 [Compound 274] |
| 1000 to 10000 nM | – | CN(c1cnc2nc(-c3cc4cn(C)nc4c(F)c3O)cc(Cl)c2c1)[C@H]1CCNC1 [Compound 275] |
| 1000 to 10000 nM | – | CN(c1cnc2nc(-c3cc4cn(C)nc4c(F)c3O)cc(Cl)c2c1)[C@@H]1CCNC1 [Compound 276] |
| 1000 to 10000 nM | – | Cc1c(O)c(-c2ccc3c(Cl)c(N4CCNCC4)cnc3n2)cc2cn(C)nc12 [Compound 278, 5-[5-chloro-6-(piperazin-1-yl)-1,8-naphthyridin-2-yl]-2,7-dimethylindazol-6-ol] |
| 1000 to 10000 nM | – | C[C@@H]1CN(c2cnc3nc(-c4cc5cn(C)nc5c(F)c4O)cc(Cl)c3c2)C[C@H](C)N1 [Compound 279] |
| < 100 nM | – | C[C@H]1CN(c2cnc3nc(-c4cc5cn(C)nc5c(F)c4O)cc(Cl)c3c2)C[C@H](C)N1 [Compound 280] |
| 100 to 1000 nM | – | C[C@@H]1CN(c2cnc3nc(-c4cc5cn(C)nc5c(F)c4O)cc(Cl)c3c2)C[C@@H](C)N1 [Compound 281] |
| 1000 to 10000 nM | – | Cn1cc2cc(-c3ccc4cc(NC5CCNCC5)cnc4n3)c(O)c(F)c2n1 [Compound 285] |

| Compound | IC50 (Homo sapiens) | IC50 |
| --- | --- | --- |
| CN(c1cnc2nc(-c3cc4cn(C)nc4c(F)c3O)ccc2c1)C1CCNCC1 [Compound 284] | > 10000 nM | – |
